Test results published in PMC7734798 (ACS Medicinal Chemistry Letters, 2020).
Values joined by “and” are separate entries in the source; they are usually repeats but may differ in a detail not shown here. Equal values may be shown once. Read-outs that look alike come from different tables or passages of the source.

Assays:
[1] = tested on: primary rat cerebellar granule neurons (CGNs); conditions: for cell survival/death in CGNs, % mean ± SE of controls (MTT): 24 h treatment
[2] = tested on: human liver carcinoma immortalized cell line (HepG2); conditions: 24 h treatment
[3] = PAMPA-BBB permeation assay; conditions: PAMPA-BBB prediction
Oli-Neu cells = test: Oli-Neu cell proliferation and differentiation assay: cell counting and measure of filaments; assay type: cell-based, mouse; conditions: 5 μM, 48 h
Source text: (§1) OPC proliferation and migration to the CNS injury site as well as their differentiation are critical steps toward remyelination in MS. HDAC activity plays a crucial role in OPC proliferation/differentiation; therefore, HDAC modulation is widely considered a promising therapeutic target for MS.[30] […] Therefore, we tested the effect of our compounds on OPC proliferation and differentiation, through cell counting, measure of filaments, and analysis of proliferation/differentiation markers (Figure 7).
Oli-Neu cells were grown in SATO medium (DMEM medium, 2 mM glutamine, 10 μg/ml insulin, 5.5 μg/ml transferrin, 38.72 nM sodium selenite, 100 µM putrescine, 520 nM L-thyroxine (T4), 500 nM triiodo-L-thyronine (T3), 200 nM progesterone, 25 μg/ml of gentamycin) supplemented with 1% heat-inactivated horse serum (HS) in a humidified, 5% CO2 incubator at 37°C. Cell culture medium and all chemicals were from Sigma-Aldrich, except for insulin-transferrin-sodium selenite 100X supplement (Life Technologies Corporation). Cells were plated on 96 well plates, previously coated with 10 μg/mL poly-L-lysine (Sigma-Aldrich; 10 μg/ml) at the density of 2.5 x 10 4/0.2 mL medium/well and treated with increasing concentrations of the compounds (0.5, 1, 5 and 10 μM). […]
(§2) Oli-Neu cells proliferation and differentiation assay
48 hours, for cell counting and measure of filaments, 5 random images for each condition were acquired with an Eclipse TS100 (Nikon) microscope using a 10X objective. Cells number and filament length were measured with Fiji ImageJ2 software. […]

Olig2 = test: Oli-Neu proliferation marker Olig2 expression (Western blot); assay type: cell-based, mouse; conditions: Oli-Neu cells, 5 μM, 48 h
Source text: as §1
Oli-Neu cells were grown in SATO medium (DMEM medium, 2 mM glutamine, 10 μg/ml insulin, 5.5 μg/ml transferrin, 38.72 nM sodium selenite, 100 µM putrescine, 520 nM L-thyroxine (T4), 500 nM triiodo-L-thyronine (T3), 200 nM progesterone, 25 μg/ml of gentamycin) supplemented with 1% heat-inactivated horse serum (HS) in a humidified, 5% CO2 incubator at 37°C. Cell culture medium and all chemicals were from Sigma-Aldrich, except for insulin-transferrin-sodium selenite 100X supplement (Life Technologies Corporation). Cells were plated on 96 well plates, previously coated with 10 μg/mL poly-L-lysine (Sigma-Aldrich; 10 μg/ml) at the density of 2.5 x 10 4/0.2 mL medium/well and treated with increasing concentrations of the compounds (0.5, 1, 5 and 10 μM).
After 24 hours, the viability was evaluated through the MTT assay.
as §2
(§3) 48 hours, for cell counting and measure of filaments, 5 random images for each condition were acquired with an Eclipse TS100 (Nikon) microscope using a 10X objective. Cells number and filament length were measured with Fiji ImageJ2 software. After 48 hours for proliferation and 72 hours of treatment for differentiation analysis, cells were lysed in ice-cold lysis buffer (50 mM Tris-HCl pH 7.4, 1% SDS, 0.05% protease inhibitor cocktail; all from Sigma-Aldrich) and protein content was determined by using the Lowry method. […]

CNPase = test: Oli-Neu differentiation marker CNPase expression (Western blot); assay type: cell-based, mouse; conditions: Oli-Neu cells, 5 μM, 72 h
Source text: as §1, with “7). […]” for “7).”
After 24 hours, the viability was evaluated through the MTT assay. […]
as §3

[4] = PAMPA

SMILES	cell survival/death in CGNs, % mean ± SE of controls (MTT) ([1]; 5 μM)	cell survival/death in CGNs, % mean ± SE of controls (MTT) ([1]; 10 μM)	cell survival/death in CGNs, % mean ± SE of controls (MTT) ([1]; 25 μM)	cell survival/death in CGNs, % mean ± SE of controls (MTT) ([1]; 50 μM)	cell survival/death in HepG2 cells, % mean ± SE of controls (MTT) ([2]; 5 μM)	cell survival/death in HepG2 cells, % mean ± SE of controls (MTT) ([2]; 10 μM)	cell survival/death in HepG2 cells, % mean ± SE of controls (MTT) ([2]; 25 μM)	cell survival/death in HepG2 cells, % mean ± SE of controls (MTT) ([2]; 50 μM)	other results
CC/C=C\C/C=C\C/C=C\CCCCCCCC(=O)OCCNC(=O)C(CCC)CCC [compound 3]	119 ± 17%	116 ± 3%	99 ± 17%	41% and 41 ± 6 ^b %	86 ± 10%	92 ± 3%	84 ± 10%	75 ± 13%	
CC/C=C\C/C=C\C/C=C\CCCCCCCC(=O)OCCOC(=O)C(CCC)CCC [compound 4]	118 ± 16%	114 ± 3%	71 ± 8%	45% and 45 ± 8 ^b %	95 ± 14%	99 ± 5%	75 ± 12%	74 ± 12%	
CNC(=C[N+](=O)[O-])NCCSCc1ccc(CN(C)C)o1 [ranitidine, reference compound]									BBB penetration estimation, CNS (+/−) [3]: CNS –
CCCC(CCC)C(=O)O [VPA, valproic acid, reference compound]									Oli-Neu cell number (Oli-Neu cells): decrease cell number; Oli-Neu filament length (Oli-Neu cells): parallel increase in filament length; expression of Olig2, marker of OPCs proliferation (Olig2): marked decrease; expression of CNPase, marker of differentiation (CNPase): significant increase; neurotoxicity profile in CGNs (in words) ([1]; 5-50 μM, 24 h): negligible neurotoxicity
CC/C=C\C/C=C\C/C=C\CCCCCCCC(=O)O [ALA, α-linolenic acid, reference compound]	93 ± 13%	97 ± 3%	79 ± 12%	45% and 45 ± 5 ^b %	109 ± 17%	90 ± 5%	91 ± 13%	92 ± 9%	
Nc1c2c(nc3ccccc13)CCCC2 [tacrine]									BBB penetration estimation, CNS (+/−) [4]: CNS +
